Data as given in ChEMBL document CHEMBL3045135, “Synthesis, characterization and pharmacological evaluation of (E)-N-(substituted-benzylidene)isonicotinohydrazide derivatives as potent anticonvulsant agents” (Med Chem Res, 2012).
Calls of active or inactive are those of the source. No cut-off for these calls is given here.

Columns and labels:
[1] = Neurotoxicity in ip dosed Mus musculus C57B/6 (mouse) assessed as minimal motor impairment after 4 hr; format: toxicity, organism-based; conditions: in vivo
[2] = tested on: Mus musculus; assay: Anticonvulsant activity in Mus musculus C57B/6 (mouse) assessed as protection against maximal electroshock-induced seizure at 300 mg/kg, ip after 4 hr; format: functional, organism-based; design: dose 300 mg/kg
[3] = tested on: Mus musculus; assay: Anticonvulsant activity in Mus musculus C57B/6 (mouse) assessed as protection against subcutaneous pentylene tetrazole-induced seizure at 300 mg/kg, ip after 4 hr; format: functional, organism-based; design: dose 300 mg/kg
[4] = tested on: Mus musculus; assay: Anticonvulsant activity in Mus musculus C57B/6 (mouse) assessed as protection against subcutaneous pentylene tetrazole-induced seizure at 300 mg/kg, ip after 0.5 hr; format: functional, organism-based; design: dose 300 mg/kg
[5] = tested on: Mus musculus; assay: Neurotoxicity in Mus musculus C57B/6 (mouse) assessed as minimal motor impairment at 300 mg/kg, ip after 0.5 hr; format: toxicity, organism-based; design: dose 300 mg/kg, route intraperitoneal; conditions: in vivo
[6] = tested on: Mus musculus; assay: Anticonvulsant activity in Mus musculus C57B/6 (mouse) assessed as protection against maximal electroshock-induced seizure at 300 mg/kg, ip after 0.5 hr; format: functional, organism-based; design: dose 300 mg/kg
[7] = tested on: Mus musculus; assay: Neurotoxicity in Mus musculus C57B/6 (mouse) assessed as minimal motor impairment at 300 mg/kg, ip after 4 hr; format: toxicity, organism-based; design: dose 300 mg/kg, route intraperitoneal; conditions: in vivo
[8] = tested on: Mus musculus; assay: Anticonvulsant activity in ip dosed Mus musculus C57B/6 (mouse) assessed as protection against maximal electroshock-induced seizure after 0.5 hr; format: functional; conditions: C57B/6, ip, read-out: MED
[9] = tested on: Mus musculus; assay: Anticonvulsant activity in Mus musculus C57B/6 (mouse) assessed as protection against 6 Hz psychomotor seizure at 100 mg/kg, ip after 0.25 to 4 hr by minimal clonic seizure test; format: functional, organism-based; design: dose 100 mg/kg
[10] = tested on: Mus musculus; assay: Anticonvulsant activity in ip dosed Mus musculus C57B/6 (mouse) assessed as protection against subcutaneous pentylene tetrazole-induced seizure after 0.5 hr; format: functional; conditions: C57B/6, 0.5 h, read-out: MED
[11] = tested on: Mus musculus; assay: Anticonvulsant activity in ip dosed Mus musculus C57B/6 (mouse) assessed as protection against maximal electroshock-induced seizure after 4 hr; format: functional; conditions: C57B/6, ip, read-out: MED

SMILES | MTD at 4 h [1] | Activity [2] | Activity [3] | Activity [4] | Activity [5] | Activity [6] | Activity [7] | minimal effective dose [8] | Activity [9] | minimal effective dose [10] | minimal effective dose [11]
CN(C)c1ccc(/C=N/NC(=O)c2ccncc2)cc1 [N'-(4-DIMETHYLAMINOBENZYLIDENE)ISONICOTINOHYDRAZIDE] | 300 mg/kg | inactive | inactive | inactive | Non-toxic | inactive |  |  |  |  | 
O=C(N/N=C(\c1ccccc1)c1ccc(Br)cc1)c1ccncc1 | 100 mg/kg | inactive | inactive | inactive | Non-toxic | inactive |  |  |  |  | 
O=C(NN=C(c1ccccc1)c1ccccc1)c1ccncc1 |  | inactive | inactive |  | Non-toxic |  | Non-toxic | 300 mg/kg | Active | 300 mg/kg | 
C/C(=N\NC(=O)c1ccncc1)c1ccccc1 [ISONICOTINOYLHYDRAZONE OF ACETOPHENONE] | 300 mg/kg | inactive | inactive | inactive |  | inactive |  |  |  |  | 
CCOc1ccccc1/C=N/NC(=O)c1ccncc1 |  | inactive | inactive | inactive | Non-toxic |  | Non-toxic | 300 mg/kg | Active |  | 
O=C(N/N=C/c1ccccc1)c1ccncc1 [N'-BENZYLIDENE ISONICOTINOHYDRAZIDE] |  | inactive | inactive | inactive | Non-toxic |  | Non-toxic | 300 mg/kg | Active |  | 
O=C(N/N=C/c1cccc(F)c1)c1ccncc1 |  | inactive | inactive | inactive | Non-toxic |  | Non-toxic | 300 mg/kg | Active |  | 
O=C1NC(=O)C(c2ccccc2)(c2ccccc2)N1 [PHENYTOIN] |  |  | inactive | inactive |  |  |  | 30 mg/kg |  |  | 30 mg/kg
